Data as given in patent publication US7713991B2, “Imidazo[[1, 5-A] pyridine derivatives and methods for treating aldosterone mediated diseases” (Novartis AG, priority 2003, dated 2010).

Target: aldosterone synthase (Rattus norvegicus, UniProt P30099)
Test: aldosterone synthase inhibitory activity in vitro
Assay type: biochemical
Settings: rat adrenal glomerulosa homogenate, corticosterone substrate; read-out: inhibits the aldosterone synthase activity, IC50 value
Description: The aldosterone synthase inhibitory activity in vitro may be determined as follows:
Adult male Sprague-Dawley rats weighing 125-150 g are obtained from Harlan Farms. All animals are caged in pairs and maintained under standard conditions of light and temperature. The animals are placed on a sodium depleted diet (0.01-0.02%) from Harland Teklad, Madison Wis. (Cat. No. TD90228) and maintained on normal drinking water ad libitum. The animals are maintained on this diet for two to four weeks prior to harvesting the adrenal glomerulosa cells. The rats are killed by CO2 inhalation, and the adrenals are immediately removed and placed in the same ice-cold buffer used during homogenization and assay of the enzyme preparation. The adrenals are de-capsulated to obtain the glomerulosa tissue. The tissue is homogenized in a glass homogenizer containing Tris assay buffer (8.5 mM MgCl2, 2.7 mM CaCl2, 3.13 mM KCl, 7.59 mM NaCl, 0.1% TEA and 50 mM Tris HCl adjusted to pH 7.4). […] The plates are scanned for radioactivity with a Bioscan System 200 Imaging Scanner (Bioscan, Ish. D.C.). The two products of the aldosterone synthase, 18—OH-corticosterone and aldosterone are scraped and counted in a liquid scintillation counter (Beckman LS6000TA, Beckman Instr., Palo Alto, Calif.).
The slope (Hill Coefficient) and x intercept (IC50) are determined by linear regression of the experimental data.

Chain of aldosterone synthase (P30099 35-510): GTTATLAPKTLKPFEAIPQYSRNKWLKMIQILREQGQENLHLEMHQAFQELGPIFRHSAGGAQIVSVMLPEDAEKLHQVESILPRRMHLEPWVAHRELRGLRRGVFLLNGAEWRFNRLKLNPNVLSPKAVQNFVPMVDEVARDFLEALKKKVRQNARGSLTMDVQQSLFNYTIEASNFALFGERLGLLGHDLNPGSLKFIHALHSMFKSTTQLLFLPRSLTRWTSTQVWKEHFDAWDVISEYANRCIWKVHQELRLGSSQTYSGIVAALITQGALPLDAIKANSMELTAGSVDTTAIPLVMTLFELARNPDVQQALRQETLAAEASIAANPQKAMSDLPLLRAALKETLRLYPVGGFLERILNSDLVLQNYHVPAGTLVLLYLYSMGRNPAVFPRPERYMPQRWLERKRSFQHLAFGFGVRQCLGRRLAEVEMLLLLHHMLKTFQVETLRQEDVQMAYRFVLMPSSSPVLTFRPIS

IC50 [nM] | SMILES
~50 | Cl.c1ccc2c(-c3cccc4cncn34)cccc2c1 [Example 1, 5-Naphthalen-1-yl-imidazo[1,5-a]pyridine hydrochloride]

Test system: not given
Test: not given
Settings: not given

melting point [°C] | SMILES
222 to 223 | Cl.c1ccc2c(-c3cccc4cncn34)cccc2c1 [Example 1, 5-Naphthalen-1-yl-imidazo[1,5-a]pyridine hydrochloride]
149 to 152 | Cl.O=C(OCc1ccccc1)N1CC=C(c2cccc3cncn23)CC1
240 to 242 | Cl.c1ccc(-c2ccc(-c3cccc4cncn34)cc2)cc1
96 to 98 | Cl.c1ccc2c(-c3cccc4cncn34)coc2c1
200 to 201 | Cl.c1ccc(-c2ccccc2-c2cccc3cncn23)cc1
